The NIST ThermoML archive (doi:10.1021/acs.jced.6b00536)

Test: xn = mol fraction of the nth substance listed
Details: Gas, Frequency=0.05 MHz, Single path-length method, x2 = 0.056

FC(F)(F)C(F)(F)C(F)(F)F [octafluoropropane] + FC(F)(F)C(F)(F)F
Details	speed of sound [m/s]
252.6 K, 87.5 kPa	107.26
252.6 K, 102.5 kPa	106.66
252.6 K, 119.8 kPa	106.02
252.6 K, 143.2 kPa	105.14
252.6 K, 173.7 kPa	103.91
252.6 K, 201.7 kPa	102.77
257.7 K, 88.9 kPa	108.41
257.7 K, 104.4 kPa	107.85
257.7 K, 122.1 kPa	107.22
257.7 K, 146.2 kPa	106.37
257.7 K, 177.3 kPa	105.18
257.7 K, 206.4 kPa	104.1
257.7 K, 234.4 kPa	102.97
262.8 K, 90.4 kPa	109.57
262.8 K, 106.6 kPa	109.02
262.8 K, 124.5 kPa	108.41
262.8 K, 148.9 kPa	107.58
262.8 K, 180.9 kPa	106.46
262.8 K, 210.8 kPa	105.41
262.8 K, 239.7 kPa	104.33
262.8 K, 276.7 kPa	102.88
267.9 K, 91.9 kPa	110.71
267.9 K, 108.6 kPa	110.16
267.9 K, 126.8 kPa	109.58
267.9 K, 151.8 kPa	108.79
267.9 K, 184.5 kPa	107.7
267.9 K, 215.2 kPa	106.69
267.9 K, 245.1 kPa	105.66
267.9 K, 283.1 kPa	104.27
273.1 K, 93.6 kPa	111.83
273.1 K, 110.7 kPa	111.31
273.1 K, 129.5 kPa	110.76
273.1 K, 154.8 kPa	109.99
273.1 K, 188.5 kPa	108.94
273.1 K, 220.5 kPa	107.96
273.1 K, 249.8 kPa	106.97
273.1 K, 290.4 kPa	105.61
278.2 K, 95.1 kPa	112.94
278.2 K, 112.5 kPa	112.44
278.2 K, 131.9 kPa	111.89
278.2 K, 157.6 kPa	111.15
278.2 K, 192.1 kPa	110.13
278.2 K, 224.8 kPa	109.21
278.2 K, 255 kPa	108.24
278.2 K, 296.7 kPa	106.96
283.2 K, 96.7 kPa	114.02
283.2 K, 114.4 kPa	113.54
283.2 K, 134 kPa	113.01
283.2 K, 160.5 kPa	112.31
283.2 K, 195.7 kPa	111.31
283.2 K, 229.1 kPa	110.42
283.2 K, 260.1 kPa	109.49
283.2 K, 303 kPa	108.25
288.3 K, 98.2 kPa	115.1
288.3 K, 116.5 kPa	114.63
288.3 K, 136.2 kPa	114.12
288.3 K, 163.5 kPa	113.43
288.3 K, 199.4 kPa	112.48
288.3 K, 233.4 kPa	111.61
288.3 K, 265.3 kPa	110.72
288.3 K, 309.2 kPa	109.53
293.3 K, 100.1 kPa	116.16
293.3 K, 118.3 kPa	115.7
293.3 K, 118.5 kPa	115.72
293.3 K, 138.4 kPa	115.2
293.3 K, 138.6 kPa	115.22
293.3 K, 166.2 kPa	114.54
293.3 K, 166.5 kPa	114.55
293.3 K, 203 kPa	113.61
293.3 K, 203.4 kPa	113.63
293.3 K, 237.8 kPa	112.79
293.3 K, 270.3 kPa	111.92
293.3 K, 271.3 kPa	111.92
293.3 K, 315.4 kPa	110.77
298.4 K, 101.4 kPa	117.22
298.4 K, 120.3 kPa	116.79
298.4 K, 140.7 kPa	116.3
298.4 K, 169.3 kPa	115.65
298.4 K, 206.9 kPa	114.77
298.4 K, 242.3 kPa	113.97
298.4 K, 275.6 kPa	113.13
298.4 K, 321.7 kPa	112.02
303.4 K, 102.9 kPa	118.27
303.4 K, 122.2 kPa	117.85
303.4 K, 143.1 kPa	117.38
303.4 K, 172.2 kPa	116.75
303.4 K, 210.6 kPa	115.9
303.4 K, 246.6 kPa	115.1
303.4 K, 280.7 kPa	114.31
303.4 K, 327.8 kPa	113.24
308.5 K, 104.4 kPa	119.31
308.5 K, 124.1 kPa	118.88
308.5 K, 145.4 kPa	118.44
308.5 K, 175.2 kPa	117.83
308.5 K, 214.1 kPa	117
308.5 K, 251 kPa	116.24
308.5 K, 285.8 kPa	115.47
308.5 K, 334 kPa	114.43
313.5 K, 105.9 kPa	120.35
313.5 K, 126 kPa	119.93
313.5 K, 147.7 kPa	119.48
313.5 K, 177.9 kPa	118.9
313.5 K, 217.6 kPa	118.09
313.5 K, 255.2 kPa	117.36
313.5 K, 290.9 kPa	116.61
313.5 K, 340 kPa	115.6
318.5 K, 107.5 kPa	121.35
318.5 K, 127.9 kPa	120.96
318.5 K, 150.1 kPa	120.53
318.5 K, 180.8 kPa	119.96
318.5 K, 221.2 kPa	119.17
318.5 K, 259.7 kPa	118.47
318.5 K, 296 kPa	117.74
318.5 K, 346.1 kPa	116.75
323.5 K, 109.2 kPa	122.36
323.5 K, 130 kPa	121.97
323.5 K, 152.5 kPa	121.55
323.5 K, 183.8 kPa	121
323.5 K, 225 kPa	120.25
323.5 K, 264.1 kPa	119.56
323.5 K, 301.1 kPa	118.85
323.5 K, 352.2 kPa	117.91
